Consider 6 compounds from patent US5614620A, “DNA binding proteins including androgen receptor” (Arch Development Corporation, priority 1993, dated 1997).

One experiment addresses T1, 79 kD hAR protein (Homo sapiens, UniProt P10275).
T1 construct: T7 transcript translated in rabbit reticulocyte lysate; untagged
T1 sequence (P10275 191-920): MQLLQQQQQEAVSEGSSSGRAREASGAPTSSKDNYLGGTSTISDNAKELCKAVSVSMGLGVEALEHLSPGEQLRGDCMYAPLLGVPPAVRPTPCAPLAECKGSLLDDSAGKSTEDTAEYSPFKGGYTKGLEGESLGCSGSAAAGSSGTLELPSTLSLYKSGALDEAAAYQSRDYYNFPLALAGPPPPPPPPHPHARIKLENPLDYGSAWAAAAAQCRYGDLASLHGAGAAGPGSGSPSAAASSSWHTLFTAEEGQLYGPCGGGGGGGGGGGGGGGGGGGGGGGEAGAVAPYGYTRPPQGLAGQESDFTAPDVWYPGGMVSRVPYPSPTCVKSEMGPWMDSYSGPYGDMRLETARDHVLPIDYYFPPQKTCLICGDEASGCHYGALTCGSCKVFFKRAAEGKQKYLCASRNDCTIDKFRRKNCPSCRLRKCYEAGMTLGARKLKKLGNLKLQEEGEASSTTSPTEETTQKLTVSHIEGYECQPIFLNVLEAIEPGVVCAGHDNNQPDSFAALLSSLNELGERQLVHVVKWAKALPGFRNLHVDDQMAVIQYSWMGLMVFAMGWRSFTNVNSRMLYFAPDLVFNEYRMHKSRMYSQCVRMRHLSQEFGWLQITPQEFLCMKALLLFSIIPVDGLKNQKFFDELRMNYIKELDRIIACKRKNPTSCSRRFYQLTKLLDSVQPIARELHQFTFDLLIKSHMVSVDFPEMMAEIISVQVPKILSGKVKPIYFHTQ
The experiment is described as follows: competition of non-radioactive steroids with [^3 H] R1881 binding to hAR made in reticulocyte lysate (hydroxylapatite-filter method).

The next experiment has as its system AR. Particulars: Liao, et al. (1973); cited from earlier work.
For a further experiment, the system named is AR mRNA. Put plainly: AR mRNA level in ventral prostate of castrated rats (RNA dot hybridization and Northern blot). Format: in vivo. Conditions: 5 mg/rat/day. Here is the method:
(§1) Because rat ventral prostate is an androgen-sensitive organ and contains the greatest amount of AR and TR2 mRNA, the effect of androgen depletion and replacement on the mRNA levels was studied by RNA dot hybridization and Northern blot analysis. […] Urol., 10:123 (1972)], was injected into normal rats for from 2 to 6 days. TR2 mRNA levels were then measured by dot hybridization as described above.

The test system of another experiment is TR2 mRNA. The experiment is described as follows: TR2 mRNA level in rat ventral prostate (RNA dot hybridization and Northern blot). Format: in vivo. Here is the method:
as §1

Experiment [1] addresses AR of rat ventral prostate. Conditions: read-out: binding constant reported previously, Schilling, et al.; cited from earlier work.
A further experiment concerns hAR in NIH 3T3 cells. Conditions: 6 of about 100 individual cell lines. The source says:
The expression of cloned AR-genes was achieved as follows in a eukaryotic system. NIH 3T3 cells, contact-inhibited cells established from NIH Swiss mouse embryo, were co-transfected with hAR cDNA inserted into pBPVMTH vectors as described by Gorman, "DNA Cloning", 2:143-190 D. M. Glover, ed.; (Oxford, Washington, D.C. 1985). Transfected cells were cloned and grown in multiple-well cell culture plates. About 100 individual cell lines were isolated.

In a further experiment the test system is human androgen receptor. Particulars: Govindan, et al.; cited from earlier work.
The next experiment has as its system ventral prostate. Conditions: castrated rats; Neri, et al.; cited from earlier work.

On to `C[C@]1(O)CC[C@H]2[C@@H]3CCC4=CC(=O)CCC4=C3C=C[C@@]21C` [R1881, 17α-methyl-17β-hydroxy-estra-4,9,11-trien-3-one], for which the “[^3 H] R1881-bound (% of control)” value on 79 kD hAR protein (reticulocyte lysate har, 0.05 µM) is listed as 10 % of control. Besides, the “AR binding affinity (in words)” value with AR is reported as “binds AR with high affinity”.

Consider `C[C@]12CCC(=O)C=C1CC[C@@H]1[C@@H]2[C@@H](O)C[C@@]2(C)[C@H]1CC[C@]2(O)C(=O)CO` [Hydrocortisone], for which, on 79 kD hAR protein (79 kD protein, reticulocyte lysate), the “competition with [^3 H] R1881 binding (in words)” value is listed as “did not compete well”. The remaining activity at 0.05 µM on 79 kD hAR protein (read-out: [^3 H] R1881-bound (% of control)) was 90%.

Take `C[C@]12CCC(=O)C[C@@H]1CC[C@@H]1[C@@H]2CC[C@]2(C)[C@@H](O)CC[C@@H]12` [5α-dihydrotestosterone, 17β-hydroxy-5α-androstan-3-one]: the “AR mRNA level” value in the experiment on AR mRNA is given as “reduced the AR mRNA level to that of normal rats”. Moreover, the “TR2 mRNA level” value in the experiment on TR2 mRNA (castrated rats, injection, 5 mg/rat/day) is reported as “reduced the TR2 mRNA to the levels of normal rats”.

As to `C[C@]1(O)CC[C@H]2[C@@H]3CCC4=CC(=O)CCC4=C3C=C[C@@]21C` [[^3 H] R1881, 17α[^3 H]-methyl-17β-hydroxy-estra-4,9,11-trien-3-one], the Kd in experiment [1] is 0.65 nM. Further, the “[^3 H] R1881-binding activity relative to cells transfected with pSV2 vector alone” value in the experiment on hAR in NIH 3T3 cells is listed as “at least 4 fold”.

As for `C[C@]12CCC(=O)C[C@@H]1CC[C@@H]1[C@@H]2CC[C@]2(C)[C@@H](O)CC[C@@H]12` [DHT, dihydrotestosterone], the “binding of tritium-labelled DHT (in words)” value in the experiment with human androgen receptor was “with high affinity and specificity”.

`CC(C)C(=O)Nc1ccc([N+](=O)[O-])c(C(F)(F)F)c1` [Flutamide]: the “effect on 5α-dihydrotestosterone action on ventral prostate weights” value in the experiment with ventral prostate is “antagonizes the effects of 5α-dihydrotestosterone on the ventral prostate weights in castrated rats”. Further, the “TR2 mRNA level” value in the experiment on TR2 mRNA (normal rats, injected for from 2 to 6 days) is “increased TR2 mRNA levels”.
